Experimental data reported in US10508085B2, “Compounds and methods for IDO and TDO modulation, and indications therefor” (Plexxikon Inc., priority 2016, dated 2019).

Tests used:
[1] = molecular target: T1, Human Indoleamine 2,3-dioxygenase (IDO) (Homo sapiens, UniProt P14902); test: Human IDO enzymatic assay (kynurenine level); type: biochemical; details: 6 nM IDO, 10 μM L-Trp; geometric mean; read-out: IDO1 GMean: IC50 (μM) (Biochemical Assay)
T1 construct: His tag (N); made in house; host or cells: E. coli
T1 sequence (P14902 whole entry): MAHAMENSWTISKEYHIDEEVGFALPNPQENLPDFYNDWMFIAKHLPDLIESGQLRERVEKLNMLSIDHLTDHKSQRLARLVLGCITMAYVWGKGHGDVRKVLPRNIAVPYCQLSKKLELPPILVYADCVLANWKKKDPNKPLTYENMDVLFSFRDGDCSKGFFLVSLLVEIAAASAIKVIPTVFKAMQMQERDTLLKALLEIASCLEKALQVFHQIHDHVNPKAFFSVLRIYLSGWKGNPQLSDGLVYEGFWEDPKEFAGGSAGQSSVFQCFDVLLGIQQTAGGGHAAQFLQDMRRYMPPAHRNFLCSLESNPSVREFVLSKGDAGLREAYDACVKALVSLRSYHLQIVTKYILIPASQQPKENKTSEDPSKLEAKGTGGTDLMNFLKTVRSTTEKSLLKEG
Method in brief: (§1)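 Kynurenine formed is measured after TCA quench and 50 °C hydrolysis, with % inhibition against full-reaction and no-enzyme controls (5% DMSO). IDO: 6 nM enzyme, 10 μM L-Trp, 5 μM methylene blue, 20 min; TDO: 1 nM, 350 μM L-Trp, 0.4 μM methylene blue, 70 min; both pH 6.5, room temp, E. coli-expressed His-tagged.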

[2] = molecular target: T2, Human Tryptophan 2,3-dioxygenase (TDO) (Homo sapiens, UniProt P48775); test: Human TDO enzymatic assay (kynurenine level); type: biochemical; details: 1 nM TDO, 350 μM L-Trp; geometric mean; read-out: TDO GMean: IC50 (μM) (Biochemical Assay)
T2 construct: His tag (N); made in house; host or cells: E. coli
T2 sequence (P48775 whole entry): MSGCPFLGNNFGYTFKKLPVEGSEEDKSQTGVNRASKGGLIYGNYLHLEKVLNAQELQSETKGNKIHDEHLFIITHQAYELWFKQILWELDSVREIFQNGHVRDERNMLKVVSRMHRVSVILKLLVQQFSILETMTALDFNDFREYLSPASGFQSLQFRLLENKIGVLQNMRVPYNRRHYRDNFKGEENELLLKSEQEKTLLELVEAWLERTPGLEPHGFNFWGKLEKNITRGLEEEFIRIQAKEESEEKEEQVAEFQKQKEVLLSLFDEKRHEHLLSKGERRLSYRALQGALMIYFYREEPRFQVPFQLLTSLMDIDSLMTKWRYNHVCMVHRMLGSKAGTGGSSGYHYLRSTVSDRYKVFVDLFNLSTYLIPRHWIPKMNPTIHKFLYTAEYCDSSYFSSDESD
Method in brief: as §1

[3] = molecular target: T3, human IDO (IDO1-expressing HEK293 cells) (Homo sapiens, UniProt P14902); test: Cell based kynurenine assay, IDO1-expressing HEK293 cell clones; details: IDO1-expressing HEK293 cells, 24 hours incubation; geometric mean; read-out: HEK293 IDO1 Kynurenine GMean IC50 (μM) (Cellular Assay)
T3 construct: expressed in transfected cells
T3 sequence (P14902 whole entry): as the sequence (P14902 whole entry) above
Method in brief: (§2)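 Kynurenine in culture supernatant read after 24 h compound exposure of HEK293 cells stably expressing human IDO1 or TDO. IC50 from nonlinear regression of % inhibition relative to 0.2% DMSO cell (high) and media-only (low) controls.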

[4] = molecular target: T4, human TDO (TDO-expressing HEK293 cells) (Homo sapiens, UniProt P48775); test: Cell based kynurenine assay, TDO-expressing HEK293 cell clones; details: TDO-expressing HEK293 cells, 24 hours incubation; geometric mean; read-out: HEK293 TDO Kynurenine GMean IC50 (μM) (Cellular Assay)
T4 construct: expressed in transfected cells
T4 sequence (P48775 whole entry): as the sequence (P48775 whole entry) above
Method in brief: as §2

Row | IC50 [1] [µM] | IC50 [2] [µM] | IC50 [3] [µM] | IC50 [4] [µM] | Compound
1 | 0.0001 to 10 | 0.0001 to 10 | 0.0001 to 10 | 0.0001 to 10 | CS(=O)(=O)N1CCC(C(F)(F)C(O)c2cc(Cl)cc3cn[nH]c23)CC1 (stereo not drawn) [Compound P-0270, 1-(5-chloro-1H-indazol-7-yl)-2,2-difluoro-2-(1-(methylsulfonyl)piperidin-4-yl)ethan-1-ol]
2 | 0.0001 to 10 | 0.0001 to 10 | 0.0001 to 10 | 0.0001 to 10 | CC(C)(C(O)c1cc(Cl)cc2cn[nH]c12)[C@H]1C[C@H]2CC[C@@H](C1)N2S(C)(=O)=O (stereo partly drawn) [Compound P-0271, 1-(5-chloro-1H-indazol-7-yl)-2-methyl-2-((1R,3r,5S)-8-(methylsulfonyl)-8-azabicyclo[3.2.1]octan-3-yl)propan-1-ol]
3 | 0.0001 to 10 | 0.0001 to 10 | 0.0001 to 10 | 0.0001 to 10 | CC(C)(C(O)c1cc(Cl)cc2cn[nH]c12)[C@@H]1C[C@H]2CC[C@@H](C1)N2S(C)(=O)=O (stereo partly drawn) [Compound P-0272, 1-(5-chloro-1H-indazol-7-yl)-2-methyl-2-((1R,3s,5S)-8-(methylsulfonyl)-8-azabicyclo[3.2.1]octan-3-yl)propan-1-ol]
4 | 0.0001 to 10 | 0.0001 to 10 | 0.0001 to 10 | 0.0001 to 10 | CC(C)(C)OC(=O)N1CC2CCC(C1)C2CC(O)c1cc(Cl)cc2cn[nH]c12 (stereo not drawn) [Compound P-0273, tert-butyl 8-(2-(5-chloro-1H-indazol-7-yl)-2-hydroxyethyl)-3-azabicyclo[3.2.1]octane-3-carboxylate]
5 | 10 to 100 | 10 to 100 | > 10 | > 10 | OC(CC1C2CCC1CNC2)c1cc(Cl)cc2cn[nH]c12 (stereo not drawn) [Compound P-0274, 2-(3-azabicyclo[3.2.1]octan-8-yl)-1-(5-chloro-1H-indazol-7-yl)ethan-1-ol]
6 | 0.0001 to 10 | 0.0001 to 10 | 0.0001 to 10 | 0.0001 to 10 | CCS(=O)(=O)N1CCC(C(F)(F)C(O)c2cc(Cl)cc3cn[nH]c23)CC1 (stereo not drawn) [Compound P-0276, 1-(5-chloro-1H-indazol-7-yl)-2-(1-(ethylsulfonyl)piperidin-4-yl)-2,2-difluoroethan-1-ol]
7 | 0.0001 to 10 | 0.0001 to 10 | 0.0001 to 10 | 0.0001 to 10 | CC(=O)N1CC2CCC(C1)C2CC(O)c1cc(Cl)cc2cn[nH]c12 (stereo not drawn) [Compound P-0281, 1-(8-(2-(5-chloro-1H-indazol-7-yl)-2-hydroxyethyl)-3-azabicyclo[3.2.1]octan-3-yl)ethan-1-one]
8 | 0.0001 to 10 | 0.0001 to 10 | 0.0001 to 10 | 0.0001 to 10 | CS(=O)(=O)N1CC2CCC(C1)C2CC(O)c1cc(Cl)cc2cn[nH]c12 (stereo not drawn) [Compound P-0282, 1-(5-chloro-1H-indazol-7-yl)-2-(3-(methylsulfonyl)-3-azabicyclo[3.2.1]octan-8-yl)ethan-1-ol]
9 | 0.0001 to 10 | 0.0001 to 10 | > 10 | 0.0001 to 10 | CS(=O)(=O)N1CCC(C(O)c2cc(Cl)cc3cn[nH]c23)CC1 (stereo not drawn) [Compound P-0283, (5-chloro-1H-indazol-7-yl)(1-(methylsulfonyl)piperidin-4-yl)methanol]
10 | 0.0001 to 10 | 0.0001 to 10 | 0.0001 to 10 | 0.0001 to 10 | CC1(C(O)c2cc(Cl)cc3cn[nH]c23)CCN(S(C)(=O)=O)CC1 (stereo not drawn) [Compound P-0286, (5-chloro-1H-indazol-7-yl)(4-methyl-1-(methylsulfonyl)piperidin-4-yl)methanol]
11 | 0.0001 to 10 | 0.0001 to 10 | 0.0001 to 10 | 0.0001 to 10 | CS(=O)(=O)N1CCC(C(F)(F)C(O)c2c(F)c(Cl)cc3cn[nH]c23)CC1 (stereo not drawn) [Compound P-0288, 1-(5-chloro-6-fluoro-1H-indazol-7-yl)-2,2-difluoro-2-(1-(methylsulfonyl)piperidin-4-yl)ethan-1-ol]
12 | 0.0001 to 10 | 0.0001 to 10 | 0.0001 to 10 | 0.0001 to 10 | OC(c1cc(Cl)cc2cn[nH]c12)C(F)(F)C1(O)CCC1 (stereo not drawn) [Compound P-0289, 1-(2-(5-chloro-1H-indazol-7-yl)-1,1-difluoro-2-hydroxyethyl)cyclobutan-1-ol]
13 | 0.0001 to 10 | 0.0001 to 10 | 0.0001 to 10 | 0.0001 to 10 | CC(=O)N1CCC(C(F)(F)C(O)c2cc(Cl)cc3cn[nH]c23)CC1 (stereo not drawn) [Compound P-0295, 1-(4-(2-(5-chloro-1H-indazol-7-yl)-1,1-difluoro-2-hydroxyethyl)piperidin-1-yl)ethan-1-one]

The next lines start with the compound.

Row | Compound | IC50 [1] [µM] | IC50 [2] [µM] | IC50 [3] [µM] | IC50 [4] [µM]
14 | CCC(CC)C(O)c1cc(Cl)cc2cn[nH]c12 (stereo not drawn) [Compound P-0268, 1-(5-chloro-1H-indazol-7-yl)-2-ethylbutan-1-ol] | 0.0001 to 10 | 0.0001 to 10 | 0.0001 to 10 | 0.0001 to 10
15 | OC(c1cc(Cl)cc2cn[nH]c12)C12CCC(C(F)F)(CC1)CC2 (stereo not drawn) [Compound P-0269, (5-chloro-1H-indazol-7-yl)(4-(difluoromethyl)bicyclo[2.2.2]octan-1-yl)methanol] | 0.0001 to 10 | 0.0001 to 10 | 0.0001 to 10 | 0.0001 to 10
16 | O=C(c1c2c(cc3cn[nH]c13)CC2)C(F)(F)C1CCOCC1 [Compound P-0275, 1-(5,6-dihydro-1H-cyclobuta[f]indazol-7-yl)-2,2-difluoro-2-(tetrahydro-2H-pyran-4-yl)ethan-1-one] | 0.0001 to 10 | 0.0001 to 10 | 0.0001 to 10 | 0.0001 to 10
17 | OC(c1c2c(cc3cn[nH]c13)CC2)C1(C2CCOCC2)CC1 (stereo not drawn) [Compound P-0277, (5,6-dihydro-1H-cyclobuta[f]indazol-7-yl)(1-(tetrahydro-2H-pyran-4-yl)cyclopropyl)methanol] | 0.0001 to 10 | 0.0001 to 10 | 0.0001 to 10 | > 10
18 | OC(c1c2c(cc3cn[nH]c13)CC2)C(F)(F)C1CCOCC1 (stereo not drawn) [Compound P-0278, 1-(5,6-dihydro-1H-cyclobuta[f]indazol-7-yl)-2,2-difluoro-2-(tetrahydro-2H-pyran-4-yl)ethan-1-ol] | 0.0001 to 10 | 0.0001 to 10 | 0.0001 to 10 | > 10
19 | OC(c1c2c(cc3cn[nH]c13)CC2)C12CCC(CC1)CC2 (stereo not drawn) [Compound P-0279, bicyclo[2.2.2]octan-1-yl(5,6-dihydro-1H-cyclobuta[f]indazol-7-yl)methanol] | 0.0001 to 10 | 0.0001 to 10 | 0.0001 to 10 | > 10
20 | CC(C)(C1CCN(S(C)(=O)=O)CC1)C(O)c1c2c(cc3cn[nH]c13)CC2 (stereo not drawn) [Compound P-0280, 1-(5,6-dihydro-1H-cyclobuta[f]indazol-7-yl)-2-methyl-2-(1-(methylsulfonyl)piperidin-4-yl)propan-1-ol] | 0.0001 to 10 | 0.0001 to 10 | 0.0001 to 10 | > 10
21 | CC(C)(C1CCN(S(C)(=O)=O)CC1)C(O)c1c(F)ccc2cn[nH]c12 (stereo not drawn) [Compound P-0284, 1-(6-fluoro-1H-indazol-7-yl)-2-methyl-2-(1-(methylsulfonyl)piperidin-4-yl)propan-1-ol] | 0.0001 to 10 | 0.0001 to 10 | 0.0001 to 10 | 0.0001 to 10
22 | CC(C)(C(O)c1c(F)c(Cl)cc2cn[nH]c12)[C@H]1C[C@H]2CC[C@@H](C1)N2S(C)(=O)=O (stereo partly drawn) [Compound P-0285, 1-(5-chloro-6-fluoro-1H-indazol-7-yl)-2-methyl-2-((1R,3r,5S)-8-(methylsulfonyl)-8-azabicyclo[3.2.1]octan-3-yl)propan-1-ol] | 0.0001 to 10 | 0.0001 to 10 | 0.0001 to 10 | 0.0001 to 10
23 | CC1(C(O)c2c(Cl)c(Cl)cc3cn[nH]c23)CCCCC1 (stereo not drawn) [Compound P-0287, (5,6-dichloro-1H-indazol-7-yl)(1-methylcyclohexyl)methanol] | 0.0001 to 10 | 0.0001 to 10 | 0.0001 to 10 | > 10
24 | OC(c1c(F)c(Cl)cc2cn[nH]c12)C(F)(F)C1(O)CCC1 (stereo not drawn) [Compound P-0290, 1-(2-(5-chloro-6-fluoro-1H-indazol-7-yl)-1,1-difluoro-2-hydroxyethyl)cyclobutan-1-ol] | 0.0001 to 10 | 0.0001 to 10 | 0.0001 to 10 | 0.0001 to 10
25 | CC(C)S(=O)(=O)N1CC2CCC(C1)C2CC(O)c1cc(Cl)cc2cn[nH]c12 (stereo not drawn) [Compound P-0291, 1-(5-chloro-1H-indazol-7-yl)-2-(3-(isopropylsulfonyl)-3-azabicyclo[3.2.1]octan-8-yl)ethan-1-ol] | 0.0001 to 10 | 0.0001 to 10 | 0.0001 to 10 | 0.0001 to 10
26 | CC1(C)CN(c2c3c(cc4cn[nH]c24)CC3)CCN1S(C)(=O)=O [Compound P-0292, 7-(3,3-dimethyl-4-(methylsulfonyl)piperazin-1-yl)-5,6-dihydro-1H-cyclobuta[f]indazole] | 0.0001 to 10 | 0.0001 to 10 | 0.0001 to 10 | 0.0001 to 10
27 | OC(c1c2c(cc3cn[nH]c13)CC2)C1CC2CCC1C2 (stereo not drawn) [Compound P-0293, bicyclo[2.2.1]heptan-2-yl(5,6-dihydro-1H-cyclobuta[f]indazol-7-yl)methanol] | 0.0001 to 10 | 0.0001 to 10 | 0.0001 to 10 | 0.0001 to 10
